Data from article PMC9782245, “Synthesis and Structural Optimization of 2,7,9-Trisubstituted purin-8-ones as FLT3-ITD Inhibitors” (International Journal of Molecular Sciences, 2022).

How the values were obtained:
EphA1 = biological target: T1, EphA1 (Homo sapiens, UniProt P21709); assay: Kinase selectivity panel at 1 µM (Eurofins), EphA1; type: biochemical; conditions: read-out: residual enzyme activity EphA1
T1 construct: purchased Eurofins Discovery (France)
T1 sequence (P21709 26-976): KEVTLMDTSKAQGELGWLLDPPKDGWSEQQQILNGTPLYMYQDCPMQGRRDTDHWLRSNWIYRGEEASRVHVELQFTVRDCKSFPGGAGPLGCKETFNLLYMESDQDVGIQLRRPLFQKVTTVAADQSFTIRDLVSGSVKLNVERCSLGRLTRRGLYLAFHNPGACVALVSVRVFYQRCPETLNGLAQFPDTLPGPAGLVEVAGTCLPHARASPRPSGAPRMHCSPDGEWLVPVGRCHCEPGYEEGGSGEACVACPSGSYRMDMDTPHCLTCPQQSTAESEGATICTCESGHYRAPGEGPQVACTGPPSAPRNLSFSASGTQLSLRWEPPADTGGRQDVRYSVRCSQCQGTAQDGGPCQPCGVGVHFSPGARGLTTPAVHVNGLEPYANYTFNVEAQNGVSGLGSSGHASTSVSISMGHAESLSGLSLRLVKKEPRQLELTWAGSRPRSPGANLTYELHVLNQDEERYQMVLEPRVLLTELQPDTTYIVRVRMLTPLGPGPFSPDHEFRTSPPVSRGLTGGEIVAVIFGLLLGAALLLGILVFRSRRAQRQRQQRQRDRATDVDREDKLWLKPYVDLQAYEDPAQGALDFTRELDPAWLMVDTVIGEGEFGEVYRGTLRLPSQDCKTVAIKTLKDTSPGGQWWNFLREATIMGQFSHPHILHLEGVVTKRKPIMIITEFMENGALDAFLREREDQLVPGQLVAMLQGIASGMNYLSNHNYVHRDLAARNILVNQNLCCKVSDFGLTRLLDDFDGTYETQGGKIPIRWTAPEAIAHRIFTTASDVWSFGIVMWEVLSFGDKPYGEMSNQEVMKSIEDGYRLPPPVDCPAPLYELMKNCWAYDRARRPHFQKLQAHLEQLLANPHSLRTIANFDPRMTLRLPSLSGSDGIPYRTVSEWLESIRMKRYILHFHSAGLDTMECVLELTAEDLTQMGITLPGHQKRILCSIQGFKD
Protocol: (§1) Three representative compounds (14d, 14e, and 15a) were profiled in a 1 µM concentration against 30 kinases that were selected as known off-targets of approved CDK4/6 inhibitors. […] Additional sensitive kinases include STK16, EphA1, MEKK2, SRC, and MER (≤10% of residual enzyme activities), which are not targets of the structurally similar CDK4/6 inhibitor, trilaciclib. We also screened compound 15a, an analogue of 14d, bearing isopropyl at position 7 of the purine instead of the methyl group. This change rapidly diminished the potency against CDK4 (dropped to 90% of residual enzyme activity), but the preference for FLT3 remained (1st rank) (Figure 2).
(§2) CDK/cyclin complexes and FLT3 kinases were assayed as previously described. Protein kinase selectivity was evaluated at a single concentration (1 µM) by screening against 30 enzymes at Eurofins Discovery (France).

Lyn = biological target: T2, Lyn (Homo sapiens, UniProt P07948); assay: Kinase selectivity panel at 1 µM (Eurofins), Lyn; type: biochemical; conditions: read-out: residual enzyme activity Lyn
T2 construct: purchased Eurofins Discovery (France)
T2 sequence (P07948 whole entry): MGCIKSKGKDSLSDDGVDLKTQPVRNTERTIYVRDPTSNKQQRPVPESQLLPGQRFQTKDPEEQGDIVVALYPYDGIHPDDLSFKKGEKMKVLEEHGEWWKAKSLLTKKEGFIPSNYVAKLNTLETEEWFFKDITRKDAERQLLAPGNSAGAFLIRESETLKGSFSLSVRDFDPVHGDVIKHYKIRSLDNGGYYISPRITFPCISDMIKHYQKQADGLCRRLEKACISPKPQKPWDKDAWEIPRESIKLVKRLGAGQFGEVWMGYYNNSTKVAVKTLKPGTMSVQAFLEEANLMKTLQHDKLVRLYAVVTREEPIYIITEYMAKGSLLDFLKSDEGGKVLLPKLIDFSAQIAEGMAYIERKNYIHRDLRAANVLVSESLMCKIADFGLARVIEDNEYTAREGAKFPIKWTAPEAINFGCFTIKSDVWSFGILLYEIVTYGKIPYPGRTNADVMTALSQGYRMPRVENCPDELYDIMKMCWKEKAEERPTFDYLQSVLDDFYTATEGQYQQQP
Protocol: as §1, §2

MV4-11 cells = assay: Flow cytometric cell cycle analysis, MV4-11; type: cell-based, Human; conditions: increasing doses, 24 h
Protocol: FLT3 inhibition causes G1-cell cycle arrest in FLT3-dependent cell lines such as MV4-11; we, therefore, performed flow cytometric analysis to evaluate cell cycle changes in MV4-11 and K562 cell lines treated with 200 nM compounds for 24 h. […] Specifically, 18 compounds arrested >85% of cells in the G1 phase, which is >30% cells in the G1 phase of the cell cycle than in control cells (Figure 4A).
Finally, we performed flow cytometric analysis with different concentrations of 15a in MV4-11 and MOLM13 (another FLT-ITD positive cell line) and K562 cell lines treated for 24 h (Figure 5).
Asynchronously growing cells were seeded into a 96-well plate and, after a preincubation period, treated with tested compounds for 24 h. The treated cells were stained directly (or after trypsinization for the adherent cells) with the 5× staining solution (17 mM trisodium citrate dihydrate, 0.5% IGEPAL CA-630, 7.5 mM spermine tetrahydrochloride, and 2.5 mM Tris; pH 7.6 containing […] propidium iodide). After the staining, DNA content was analyzed using flow cytometry using a 488 nm laser (BD FACS Verse with software BD FACSuite^TM, version 1.0.6). Cell cycle distribution was analyzed using ModFit LT (Verity Software House, version 5.0). Palbociclib, trilaciclib, and quizartinib were purchased from MedChemExpress, Monmouth Junction, NJ, USA.

MV4-11 xenograft = assay: MV4-11 subcutaneous xenograft model in NSG mice; type: in vivo; conditions: 20 mg/kg, daily i.p.
Text: Finally, we tested the in vivo activity of 15a in a model of AML based on subcutaneous xenotransplantation of MV4-11 cells in immunodeficient mice.
The experimental design was approved by the Institutional Animal Care and Use Committee (MSMT-37334/2020-4). Immunodeficient adult female NOD.Cg-Prkdc^scidIl2rg^tm1Wjl/SzJ mice (referred to as NSG mice) were purchased from The Jackson Laboratory and preserved in a pathogen-free environment in individually ventilated cages, provided with sterilized food and water. NSG mice were subcutaneously inoculated with 10 × 10^6 leukemia cells. […] Each cohort contained 6 animals. Three perpendicular dimensions (in millimeters) were measured daily with a digital caliper and tumor volumes were calculated using the following formula: π/6 × length × width × height. An experiment was terminated (and mice euthanized) when tumors exceeded 20 mm in the largest diameter.

Abl = biological target: T3, Abl (Homo sapiens, UniProt P00519); assay: Kinase selectivity panel at 1 µM (Eurofins), Abl; type: biochemical; conditions: read-out: residual enzyme activity Abl
T3 construct: purchased Eurofins Discovery (France)
T3 sequence (P00519 whole entry): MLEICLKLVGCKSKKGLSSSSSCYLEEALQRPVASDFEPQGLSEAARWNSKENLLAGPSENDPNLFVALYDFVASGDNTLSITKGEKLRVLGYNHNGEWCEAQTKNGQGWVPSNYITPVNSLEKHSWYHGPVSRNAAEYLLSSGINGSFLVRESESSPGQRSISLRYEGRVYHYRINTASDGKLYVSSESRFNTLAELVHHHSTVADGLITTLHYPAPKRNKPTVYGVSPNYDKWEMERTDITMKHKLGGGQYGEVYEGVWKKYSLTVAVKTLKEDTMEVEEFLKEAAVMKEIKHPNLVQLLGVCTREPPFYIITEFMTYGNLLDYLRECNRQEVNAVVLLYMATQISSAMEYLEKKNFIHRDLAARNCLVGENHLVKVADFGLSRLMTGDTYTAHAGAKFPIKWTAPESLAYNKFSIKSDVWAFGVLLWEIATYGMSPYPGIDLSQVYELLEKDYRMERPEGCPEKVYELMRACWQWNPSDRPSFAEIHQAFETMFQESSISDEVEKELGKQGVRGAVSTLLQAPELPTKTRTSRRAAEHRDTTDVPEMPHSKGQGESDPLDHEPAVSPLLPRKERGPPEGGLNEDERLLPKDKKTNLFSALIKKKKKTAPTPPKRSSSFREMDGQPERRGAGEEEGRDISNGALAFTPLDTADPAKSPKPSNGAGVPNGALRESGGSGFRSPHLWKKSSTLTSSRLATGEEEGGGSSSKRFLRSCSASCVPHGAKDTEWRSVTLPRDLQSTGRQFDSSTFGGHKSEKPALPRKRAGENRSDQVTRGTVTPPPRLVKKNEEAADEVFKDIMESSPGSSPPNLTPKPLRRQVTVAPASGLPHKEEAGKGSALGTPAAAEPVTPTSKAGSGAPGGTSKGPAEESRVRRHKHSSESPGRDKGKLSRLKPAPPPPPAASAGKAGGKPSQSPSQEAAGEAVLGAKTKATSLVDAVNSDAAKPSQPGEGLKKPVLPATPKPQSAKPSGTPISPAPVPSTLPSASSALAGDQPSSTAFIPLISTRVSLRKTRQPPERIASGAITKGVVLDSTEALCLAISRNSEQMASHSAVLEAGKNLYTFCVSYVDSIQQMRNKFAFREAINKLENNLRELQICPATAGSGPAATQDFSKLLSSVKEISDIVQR
Protocol: as §1, §2

| remaining activity at 1 µM (EphA1) | remaining activity at 1 µM (Lyn) | mice weight during therapy (MV4-11 xenograft) | remaining activity at 1 µM (Abl) | SMILES | cells in the G1 phase, MV4-11 (MV4-11 cells) | growth of xenografted MV4-11 cells (MV4-11 xenograft; 7 days, vs vehicle) |
| --- | --- | --- | --- | --- | --- | --- |
| ≤ 10% |  |  |  | Cn1c(=O)n(C2CCCC2)c2nc(Nc3ccc(N4CCNCC4)cc3)ncc21 [14d] |  |  |
| ≤ 10% |  |  |  | Cn1c(=O)n(C2CCCCC2)c2nc(Nc3ccc(N4CCNCC4)cc3)ncc21 [14e] |  |  |
|  | ≤ 10% | no significant reduction in mice weight | ≤ 10% | CC(C)n1c(=O)n(C2CCCC2)c2nc(Nc3ccc(N4CCNCC4)cc3)ncc21 [15a, 9-cyclopentyl-7-isopropyl-2-((4-(piperazin-1-yl)phenyl)amino)-7,9-dihydro-8H-purin-8-one] | up to 90% | significant reduction in the growth |
